Numbers after ± are expanded uncertainties. One block for each compound: values may come before it.
Tests used:
[1] = 298.15 K; 101.33 kPa; Liquid
[2] = refractive index (Na D-line) (dimensionless); conditions: 298.15 K; 101.33 kPa; Liquid; Standard Abbe refractometry
[3] = refractive index (Na D-line) (dimensionless); xn = mol fraction of the nth substance listed; conditions: 298.15 K, 101 kPa, Liquid, Standard Abbe refractometry

SMILES: CO [methanol]
mass density [1]: 786.54 ± 1.2 kg/m3
refractive index [2]: 1.3267 ± 0.00082

SMILES: CC(C)CC(C)(C)C [2,2,4-trimethylpentane] + C=COCCC
refractive index ([3]; x2 = 0): 1.39267 ± 0.00078

SMILES: CC(C)CC(C)(C)C [2,2,4-trimethylpentane] + CCO
refractive index ([3]; x2 = 0): 1.39267 ± 0.00078
refractive index ([3]; x2 = 0.052): 1.39087 ± 0.00078
refractive index ([3]; x2 = 0.1002): 1.38995 ± 0.00078
refractive index ([3]; x2 = 0.199): 1.38855 ± 0.00078
refractive index ([3]; x2 = 0.2992): 1.38682 ± 0.00078
refractive index ([3]; x2 = 0.3991): 1.38458 ± 0.00078
refractive index ([3]; x2 = 0.5005): 1.38228 ± 0.00078
refractive index ([3]; x2 = 0.6006): 1.37947 ± 0.00078
refractive index ([3]; x2 = 0.7002): 1.37613 ± 0.00078
refractive index ([3]; x2 = 0.8006): 1.37214 ± 0.00078
refractive index ([3]; x2 = 0.8998): 1.36728 ± 0.00078
refractive index ([3]; x2 = 0.9503): 1.36436 ± 0.00078

SMILES: CCO [ethanol] + CC(C)CC(C)(C)C
refractive index ([3]; x1 = 1): 1.36161 ± 0.00078

SMILES: CCO [ethanol]
mass density [1]: 785.32 ± 1.2 kg/m3
refractive index [2]: 1.36161 ± 0.00078

SMILES: CC(C)CC(C)(C)C [2,2,4-trimethylpentane]
mass density [1]: 688.18 ± 1.3 kg/m3
refractive index [2]: 1.39267 ± 0.00078

SMILES: CCO [ethanol] + C=COCCC
refractive index ([3]; x2 = 0): 1.36161 ± 0.00078

More lines, now with the values ahead:

mass density [1]: 762.98 ± 1.2 kg/m3
refractive index [2]: 1.39094 ± 0.00078
SMILES: C=COCCC [propyl vinyl ether]

refractive index ([3]; x1 = 0.0503): 1.39117 ± 0.00078
refractive index ([3]; x1 = 0.1011): 1.39096 ± 0.00078
refractive index ([3]; x1 = 0.2002): 1.39064 ± 0.00078
refractive index ([3]; x1 = 0.3002): 1.39044 ± 0.00078
refractive index ([3]; x1 = 0.3995): 1.39004 ± 0.00078
refractive index ([3]; x1 = 0.4998): 1.38988 ± 0.00078
refractive index ([3]; x1 = 0.6003): 1.38967 ± 0.00078
refractive index ([3]; x1 = 0.7004): 1.38964 ± 0.00078
refractive index ([3]; x1 = 0.7998): 1.38978 ± 0.00078
refractive index ([3]; x1 = 0.9002): 1.39013 ± 0.00078
refractive index ([3]; x1 = 0.9503): 1.39035 ± 0.00078
refractive index ([3]; x1 = 1): 1.39094 ± 0.00078
SMILES: C=COCCC [propyl vinyl ether] + CC(C)CC(C)(C)C

refractive index ([3]; x1 = 0.0499): 1.36372 ± 0.00078
refractive index ([3]; x1 = 0.1): 1.3655 ± 0.00078
refractive index ([3]; x1 = 0.2002): 1.36949 ± 0.00078
refractive index ([3]; x1 = 0.2996): 1.37356 ± 0.00078
refractive index ([3]; x1 = 0.4004): 1.37689 ± 0.00078
refractive index ([3]; x1 = 0.5006): 1.38018 ± 0.00079
refractive index ([3]; x1 = 0.6005): 1.38262 ± 0.00078
refractive index ([3]; x1 = 0.7005): 1.38517 ± 0.00078
refractive index ([3]; x1 = 0.8002): 1.38724 ± 0.00078
refractive index ([3]; x1 = 0.8997): 1.38925 ± 0.00078
refractive index ([3]; x1 = 0.9492): 1.3901 ± 0.00078
refractive index ([3]; x1 = 1): 1.39094 ± 0.00078
SMILES: C=COCCC [propyl vinyl ether] + CCO
